Assay [1] relates to RSV (A2 strain) in HEp-2 cells.
Assay [2] has as its system RSV F (HEp-2 cells expressing RSV F, G and SH). The class given is cell-based, respiratory syncytial virus.
For the next assay, the system named is RSV F protein. The note with it: ref [14], cited from earlier work.
The subject of assay [3] is RSV F construct FN155 (F residues 155–550). The note with it: yeast two-hybrid assay; FN155 construct encoding F residues 155–550; ref [14]; cited from earlier work.

The text below walks through data of PMC7095870 (Nature Medicine, 2000).

No end group written: not given here.

As for DRLRPLSYPDTDVILMCFS [RhoA67-85], in assay [1] (peptide incubated 1 h on ice with RSV, 5 and 10 μg/ml, HEp-2 cells, 3 d), the RSV-induced syncytium formation result is “did not block”.
As to DSPDSLENIPEKWTPEVKH [RhoA87-105], in assay [2], the “cell-to-cell fusion induced by RSV F” value is “not inhibited”. Also, the plaque formation result in assay [1] (pretreatment of virus inoculum, 1 h on ice, peptide 5 and 10 μg/ml, HEp-2 cells, 3 d, relative to media-treated controls) is “did not have any effect”.
Take “RhoA amino acids 67–110: F binding domain of RhoA (amino acids 67–110)”: in the assay on RSV F protein (RhoA amino acids 67–110), the “binding to RSV F amino acids 146–155” value was “bind”.
Regarding “RhoA: RhoA, a small GTPase of the Ras superfamily”, the “binding to RSV F protein” value with RSV F protein is given as “binds”. For the same substance, the “binding to RSV F construct expressing the heptad repeat region” value in assay [3] is recorded as “not bind”.
Regarding TDVILMCFSIDSPDSLENI [RhoA77-95], the half-inhibitory concentration (IC50) – broadly, the concentration at which inhibition is half-maximal – in assay [1] (1 h) was 250 nM. This lies in the sub-micromolar range.
